Holding throughout (type): biochemical
For one test, the target named is rhVAP-1 (Homo sapiens (Human), UniProt Q16853). Kind of test: VAP-1 fluorometric assay (Amplex Red/HRP, benzylamine substrate). The settings on record: class symbols, ranges defined in μM. The essentials: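 Recombinant human VAP-1 oxidizes 50 μM benzylamine in 10 mM NaHCO3 pH 7.4 containing 0.05 mM Amplex Red and 0.5 U HRP, with inhibitor in 0.5% DMSO. After 30 min at 37 °C in the dark, resorufin fluorescence is read […], calibrated against an H2O2 standard curve.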

The next test concerns the target rhMAO-A (Homo sapiens (Human), UniProt P21397). Kind of test: MAO-Glo assay, MAO-A inhibition. In short, it runs like this: (§1)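 Recombinant human MAO-A or MAO-B with luciferin-derivative substrate (10 μM for MAO-A, […]) in 100 mM HEPES pH 7.5, 5% glycerol, 1 h at room temperature; luminescence read 20 min after detection reagent.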
The next test concerns the target rhMAO-B (Homo sapiens (Human), UniProt P27338). Kind of test: MAO-Glo assay, MAO-B inhibition. The essentials: as §1
Where [1] appears, read: class symbols, ranges defined in μM.

SMILES strings stand for the structures. Where only a bound is given, the exact number is not on record here.

What is called IC50 is the midpoint of a concentration-inhibition curve. Low readings indicate higher potency, high ones lower potency.

Chain of rhMAO-A (P21397 whole entry): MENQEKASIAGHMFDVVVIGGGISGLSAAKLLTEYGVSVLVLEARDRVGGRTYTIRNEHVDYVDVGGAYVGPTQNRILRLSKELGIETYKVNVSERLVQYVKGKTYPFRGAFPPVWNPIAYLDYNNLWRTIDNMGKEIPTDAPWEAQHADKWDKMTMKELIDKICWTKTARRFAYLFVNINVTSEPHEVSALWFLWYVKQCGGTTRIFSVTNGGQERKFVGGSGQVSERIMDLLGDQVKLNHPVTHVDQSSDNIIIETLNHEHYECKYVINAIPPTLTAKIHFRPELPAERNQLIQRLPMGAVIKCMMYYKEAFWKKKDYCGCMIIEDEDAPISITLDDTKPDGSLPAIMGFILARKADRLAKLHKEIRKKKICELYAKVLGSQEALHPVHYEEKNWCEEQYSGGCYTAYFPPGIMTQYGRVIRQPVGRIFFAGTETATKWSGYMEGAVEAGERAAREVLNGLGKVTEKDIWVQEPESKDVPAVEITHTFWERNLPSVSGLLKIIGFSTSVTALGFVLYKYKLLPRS
Chain of rhVAP-1 (Q16853 whole entry): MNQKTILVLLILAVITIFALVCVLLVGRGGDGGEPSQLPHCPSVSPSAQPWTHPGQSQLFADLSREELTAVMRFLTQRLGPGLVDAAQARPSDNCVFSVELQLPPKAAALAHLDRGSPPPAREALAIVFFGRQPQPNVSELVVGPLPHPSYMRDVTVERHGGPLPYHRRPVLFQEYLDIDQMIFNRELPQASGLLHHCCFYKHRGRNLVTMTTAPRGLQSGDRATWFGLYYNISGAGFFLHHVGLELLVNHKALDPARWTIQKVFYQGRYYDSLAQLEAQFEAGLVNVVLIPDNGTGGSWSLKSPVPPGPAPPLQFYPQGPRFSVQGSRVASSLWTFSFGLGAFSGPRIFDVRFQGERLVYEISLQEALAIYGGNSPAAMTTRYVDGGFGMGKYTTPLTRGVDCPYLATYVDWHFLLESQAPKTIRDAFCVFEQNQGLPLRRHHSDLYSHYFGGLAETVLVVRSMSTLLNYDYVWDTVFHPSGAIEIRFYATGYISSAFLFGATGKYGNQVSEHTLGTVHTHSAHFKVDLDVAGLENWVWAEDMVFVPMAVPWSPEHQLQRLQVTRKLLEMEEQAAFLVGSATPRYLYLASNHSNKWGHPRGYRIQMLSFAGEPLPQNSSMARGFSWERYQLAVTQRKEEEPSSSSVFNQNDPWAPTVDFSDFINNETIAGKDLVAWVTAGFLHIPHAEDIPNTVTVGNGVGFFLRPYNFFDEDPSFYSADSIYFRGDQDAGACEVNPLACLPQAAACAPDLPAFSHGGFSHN
Chain of rhMAO-B (P27338 whole entry): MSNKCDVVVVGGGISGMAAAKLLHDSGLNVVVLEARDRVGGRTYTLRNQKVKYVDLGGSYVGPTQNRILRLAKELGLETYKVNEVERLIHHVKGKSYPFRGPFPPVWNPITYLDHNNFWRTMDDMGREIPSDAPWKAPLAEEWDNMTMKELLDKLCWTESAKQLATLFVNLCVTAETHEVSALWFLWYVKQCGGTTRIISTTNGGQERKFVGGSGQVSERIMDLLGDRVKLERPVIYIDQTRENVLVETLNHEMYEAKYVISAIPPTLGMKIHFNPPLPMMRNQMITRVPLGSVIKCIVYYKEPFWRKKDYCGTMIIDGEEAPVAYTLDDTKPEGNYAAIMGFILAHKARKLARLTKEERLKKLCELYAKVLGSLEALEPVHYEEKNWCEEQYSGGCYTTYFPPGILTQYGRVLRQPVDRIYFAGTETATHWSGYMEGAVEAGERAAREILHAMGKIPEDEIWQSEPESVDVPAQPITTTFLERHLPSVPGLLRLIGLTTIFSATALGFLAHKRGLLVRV

With `NC/C(=C/F)COc1ccc2nc(NCc3ccc(N4CCCC4=O)cc3)oc2c1` [Example 57, (Z)-1-(4-(((6-((2-(aminomethyl)-3-fluoroallyl)oxy)benzo[d]oxazol-2-yl)amino)methyl)phenyl)pyrrolidin-2-one 4-methylbenzenesulfonate], the results for the IC50 on rhVAP-1, on rhMAO-A (setting [1]) and against rhMAO-B (bound printed in cell) were 1 to 10 µM, 1 to 10 µM and > 40 µM, respectively.

Consider `NC/C(=C/F)COc1ccc2nc(NCc3cccnc3)oc2c1` [Example 58, (Z)-6-((2-(aminomethyl)-3-fluoroallyl)oxy)-N-(pyridin-3-ylmethyl)benzo[d]oxazol-2-amine bis(4-methylbenzenesulfonate)], for which the 50% inhibitory concentration (IC50) at rhVAP-1 was 1 to 10 µM; on rhMAO-A (bound printed in cell), > 50 µM; against rhMAO-B (setting [1]) it was 1 to 10 µM.

`CC(C)(C)CNc1nc2ccc(OC/C(=C/F)CN)cc2o1` [Example 59, (E)-6-((2-(aminomethyl)-3-fluoroallyl)oxy)-N-neopentylbenzo[d]oxazol-2-amine (4-methylbenzenesulfonate)]: the half-inhibitory concentration (IC50) against rhVAP-1, on rhMAO-A (setting [1]) and on rhMAO-B (setting [1]) was 1 to 10 µM each time.

Take `Cc1cc(CNc2nc3ccc(OC/C(=C\F)CN)cc3o2)cc(C)n1` [Example 60, (Z)-6-((2-(aminomethyl)-3-fluoroallyl)oxy)-N-((2,6-dimethylpyridin-4-yl)methyl)benzo[d]oxazol-2-amine bis(4-methylbenzenesulfonate)]: the IC50 against rhVAP-1 was < 0.1 µM; at rhMAO-A (bound printed in cell) it was > 50 µM; at rhMAO-B (setting [1]), 1 to 10 µM.

Take `COCCNc1nc2ccc(OC/C(=C\F)CN)cc2o1` [Example 61, (Z)-6-((2-(aminomethyl)-3-fluoroallyl)oxy)-N-(2-methoxyethyl)benzo[d]oxazol-2-amine 4-methylbenzenesulfonate]: the IC50 is < 0.1 µM on rhVAP-1, > 50 µM on rhMAO-A (bound printed in cell) and 1 to 10 µM on rhMAO-B (setting [1]).

Consider `NC/C(=C/F)COc1ccc2nc(NCc3ccnc(C(F)(F)F)c3)oc2c1` [Example 62, (Z)-6-((2-(aminomethyl)-3-fluoroallyl)oxy)-N-((2-(trifluoromethyl)pyridin-4-yl)methyl)benzo[d]oxazol-2-amine 4-methylbenzenesulfonate], for which the results for the IC50 at rhVAP-1, at rhMAO-A (setting [1]) and on rhMAO-B (setting [1]) were < 0.1 µM, 10 to 30 µM and 1 to 10 µM, respectively.

As to `NC/C(=C/F)COc1ccc2nc(N3CCOCC3)oc2c1` [Example 64, (Z)-3-fluoro-2-(((2-morpholinobenzo[d]oxazol-6-yl)oxy)methyl)prop-2-en-1-amine 4-methylbenzenesulfonate], the results for the IC50 against rhVAP-1, against rhMAO-A (setting [1]) and at rhMAO-B (setting [1]) were < 0.1 µM, 1 to 10 µM and 1 to 10 µM, respectively.

With `NC/C(=C/F)COc1ccc2nc(NCCC3COC3)oc2c1` [Example 65, (Z)-6-((2-(aminomethyl)-3-fluoroallyl)oxy)-N-(2-(oxetan-3-yl)ethyl)benzo[d]oxazol-2-amine 4-methylbenzenesulfonate], the IC50 at rhVAP-1 is < 0.1 µM; on rhMAO-A (setting [1]) it was 0.1 to 1 µM; on rhMAO-B (setting [1]), 1 to 10 µM.

`NC/C(=C\F)COc1ccc2nc(N3CC4(COC4)C3)oc2c1` [Example 67, (E)-2-(((2-(2-oxa-6-azaspiro[3.3]heptan-6-yl)benzo[d]oxazol-6-yl)oxy)methyl)-3-fluoroprop-2-en-1-amine 4-methylbenzenesulfonate]: the 50% inhibitory concentration (IC50) against rhVAP-1 was < 0.1 µM; on rhMAO-A (setting [1]), 1 to 10 µM; against rhMAO-B (setting [1]), 1 to 10 µM.

For the compound `CCCCc1nc2cc(C)c(OC/C(=C/F)CN)cc2o1` [Example 68, (E)-2-(((2-butyl-5-methylbenzo[d]oxazol-6-yl)oxy)methyl)-3-fluoroprop-2-en-1-amine 4-methylbenzenesulfonate], the IC50 against rhVAP-1 was < 0.1 µM; at rhMAO-A (setting [1]) it was 1 to 10 µM; on rhMAO-B (setting [1]), 0.1 to 1 µM.

With `Cc1ncccc1CNc1nc2ccc(OC/C(=C\F)CN)cc2o1` [Example 69, (Z)-6-((2-(aminomethyl)-3-fluoroallyl)oxy)-N-((2-methylpyridin-3-yl)methyl)benzo[d]oxazol-2-amine 4-methylbenzenesulfonate], the 50% inhibitory concentration (IC50) was < 0.1 µM on rhVAP-1, > 50 µM on rhMAO-A (bound printed in cell) and 1 to 10 µM against rhMAO-B (setting [1]).

For the compound `NC/C(=C\F)COc1ccc2nc(NCCCO)oc2c1` [Example 70, (E)-3-((6-((2-(aminomethyl)-3-fluoroallyl)oxy)benzo[d]oxazol-2-yl)amino)propan-1-ol 4-methylbenzenesulfonate], the figures for the IC50 against rhVAP-1, against rhMAO-A (setting [1]) and against rhMAO-B (setting [1]) were < 0.1 µM, 1 to 10 µM and 1 to 10 µM, respectively.

For `CNC(=O)[C@H](Cc1ccccc1)Nc1nc2ccc(OC/C(=C\F)CN)cc2o1` [Example 71, (S,Z)-2-((6-((2-(aminomethyl)-3-fluoroallyl)oxy)benzo[d]oxazol-2-yl)amino)-N-methyl-3-phenylpropanamide 4-methylbenzenesulfonate], the figures for the IC50 against rhVAP-1, at rhMAO-A (bound printed in cell) and against rhMAO-B (setting [1]) were < 0.1 µM, > 50 µM and 1 to 10 µM, respectively.

As for `CNC(=O)CN(C)c1nc2ccc(OC/C(=C\F)CN)cc2o1` [Example 72, (Z)-2-((6-((2-(aminomethyl)-3-fluoroallyl)oxy)benzo[d]oxazol-2-yl)(methyl)amino)-N-methylacetamide 4-methylbenzenesulfonate], the IC50 was < 0.1 µM on rhVAP-1, > 50 µM on rhMAO-A (bound printed in cell) and > 50 µM at rhMAO-B (bound printed in cell).

Turning to `CCCCc1nc2ccc(OC/C(=C\F)CN)cc2n1C` [Example 73, (Z)-2-(((2-Butyl-1-methyl-1H-benzo[d]imidazol-6-yl)oxy)methyl)-3-fluoroprop-2-en-1-amine 4-methylbenzenesulfonate], the IC50 was < 0.1 µM at rhVAP-1, 1 to 10 µM against rhMAO-A (setting [1]) and 1 to 10 µM at rhMAO-B (setting [1]).

On to `COc1cc(CNc2nc3ccc(OC/C(=C\F)CN)cc3o2)ccn1` [Example 74, (Z)-6-((2-(aminomethyl)-3-fluoroallyl)oxy)-N-((2-methoxypyridin-4-yl)methyl)benzo[d]oxazol-2-amine 4-methylbenzenesulfonate], for which the IC50 against rhVAP-1 was < 0.1 µM; at rhMAO-A (setting [1]) it was 1 to 10 µM; on rhMAO-B (setting [1]) it was 1 to 10 µM.

Take `COc1ncccc1CNc1nc2ccc(OC/C(=C\F)CN)cc2o1` [Example 75, (Z)-6-((2-(aminomethyl)-3-fluoroallyl)oxy)-N-((2-methoxypyridin-3-yl)methyl)benzo[d]oxazol-2-amine 4-methylbenzenesulfonate]: the IC50 against rhVAP-1 is < 0.1 µM; against rhMAO-A (bound printed in cell) it was > 50 µM; against rhMAO-B (setting [1]), 0.1 to 1 µM.

As for `COc1ccc(CNc2nc3ccc(OC/C(=C\F)CN)cc3o2)cn1` [Example 76, (Z)-6-((2-(aminomethyl)-3-fluoroallyl)oxy)-N-((6-methoxypyridin-3-yl)methyl)benzo[d]oxazol-2-amine 4-methylbenzenesulfonate], the IC50 is < 0.1 µM on rhVAP-1, 1 to 10 µM against rhMAO-A (setting [1]) and 1 to 10 µM against rhMAO-B (setting [1]).

Turning to `NC/C(=C/F)COc1ccc2nc(N3CCC(O)CC3)oc2c1` [Example 77, (Z)-1-(6-((2-(aminomethyl)-3-fluoro-allyl)oxy)benzo[d]oxazol-2-yl)piperidin-4-ol 4-methylbenzenesulfonate], the values for the half-inhibitory concentration (IC50) on rhVAP-1, against rhMAO-A (setting [1]) and on rhMAO-B (bound printed in cell) were < 0.1 µM, 1 to 10 µM and > 50 µM, respectively.

For the origin of these results see patent publication US20230295140A1, “INHIBITORS OF VAP-1” (Acucela Inc., priority 2021, published 2023).
